In patent US20220175798A1, “COMPOSITIONS COMPRISING OXYGENATED CHOLESTEROL SULFATE AND AT LEAST ONE OF POLYALKYLENE GLYCOL, CARBOXYMETHYL CELLULOSE AND POLYOXYLGLYCERIDE” (Durect Corporation, priority 2016, published 2022):

Legend:
[1] = Osmolality by vapor pressure osmometer; type: physicochemical
Method: Vapor Pressure Osmometer: Vapor® Vapor Pressure Osmometer, Model
Vehicle PEG 3350 (3% PEG 3350 plus 0.3% Tween 80 in 10 mM Phosphate at pH 7.4) with 0.71%, 0.77% and 0.80% NaCl were prepared and the osmolality was measured with a vapor pressure osmometer.
Weigh 87 mg of 25HC3S (Lot #C, Jet milled and then pass 20 mesh screen) into a 5-mL vial. Add to the vial 3 mL Vehicle PEG 3350 (without L-methionine and with 0.75% NaCl). […] Weigh another approximately and accurately 90 mg each of 25HC3S (Lot #D and Lot #B, micronized, one pass) into 3 separate 10 mL vials with 3 mL of Vehicle PEG 3350. The vials were placed in a flat bed shaker at 200 rpm for 45 minutes (Mixing Method 4). […] A second set of samples was prepared likewise from the same 3 vials except using 1 mL BD syringe attached to a 27G½″ needle. The homogeneity was determined (Study #19).

[2] = tested on: renal ischemia/reperfusion injury; assay: Renal ischemia/reperfusion injury in rats; type: in vivo, Lewis rats; conditions: 50 mg/kg daily for 4 days oral gavage; Day 3; vs vehicle; not statistically significant
Method: The subjects for the study were 18 adult male Lewis rats (9-11 weeks of age; 225-250 g). […] All animals were in healthy condition and admitted to the study.
(§1) The Vehicle was a solution of 0.5% (w/v) CMC and 0.05% (v/v) Tween-80 in water. Powdered 25HC3 S was constituted into the vehicle solution to result in a drug concentration of 20 mg/mL. The suspensions were homogenized at 20,000 rotations per minute (rpm) for approximately 5 minutes after being combined, with 10 second breaks every 30-40 seconds and swirled before dosing to maintain homogeneity. The formulated test article was prepared weekly and kept at room temperature.
All rats were anesthetized with intraperitoneal injection of pentobarbital (40 mg/kg). Ischemia of the left kidney was achieved by transient occlusion of the left renal artery and vein, and ureter for 50 min with a vascular micro-clip. The skin was temporarily closed during the ischemia period and the rats were put on a heating pad maintained at a temperature of 37° C. At reperfusion, the right kidney was removed before permanently closing the abdomen with 4-0 silk suture Animals were treated with vehicle (N=6) or 25HC3S (N=12) daily for 4 days, starting on the day before the surgery, (pre-treatment, Day −1) and for 2 days after the surgery. […] Serum creatinine (sCr) levels and BUN levels were examined on Day −2 (baseline), Day 3, and/or Day 7 after the surgery.

[3] = Syringeability study of 25HC3S suspensions; type: physicochemical
Method: Two lots of 25HC3S sodium salt (Lot #A and Lot #B) were used. Lot #B was delumped through a 20 mesh screen. The drug substance was either used directly or further jet-milled, prior to the preparation of suspensions for the studies. A third lot of 25HC3 S sodium salt (Lot #C) was jet-milled first and then used directly or further passed through a 20 mesh screen prior to the studies. More than 10 vehicles were screened. Four mixing methods were evaluated: manual shaking (Mixing Method 1), manual shaking followed by sonication (Mixing Method 2) and homogenization with a sonic probe (Mixing Method 3) as well as mechanical shaking horizontally in a flat bed shaker (Mixing Method 4). Studies #1 to 13 combined vehicle screening, mixing methods and syringeability evaluation. The effect of drug concentrations on the syringeability was evaluated (Studies #10 and 11). Syringe: 1 mL BD syringe (luer lok tip), reference no: 309628 Needles for syringeability study: listed below Weigh approximately 10 to 100 mg each of 25HC3S into 2 mL vials. Add to each vial, 1 mL of vehicle. A total of 3 mixing methods were used to prepare the suspensions. Mixing Method 1: Each vial was manually shaken for 15 to 45 times. […] The effect of 25HC3S with or without jet milling and the effects of mixing methods as well as drug concentrations on the syringeability were evaluated. […]

[4] = tested on: APAP-induced liver failure; assay: Acetaminophen (APAP)-induced model of acute liver failure; type: in vivo, C57BL/6J mice; conditions: 25 mg/kg oral gavage 1 hr (and 24 hr) post APAP 300 mg/kg; vs vehicle
Method: The subjects for the study were 52 C57BL/6J male mice (12 weeks of age; 27.4-40 g). […] All animals were in healthy condition and admitted to the study.
as §1, with “of 3” for “of 20”
Two groups of mice (N=14/group) were challenged with 300 mg/kg APAP by oral gavage. The two groups were treated with one dose of vehicle or 25HC3 S (25 mg/kg) by oral gavage at a dose volume of 8.33 mL/kg one hour post-APAP challenge. Half of the mice in each group (N=6-7/group) were given a second dose of vehicle or 25HC3 S (25 mg/kg) at 24 hour post-APAP delivery in addition to the first dose at 1 hr. Cohort A mice (single dose) were sacrificed 24 hrs post APAP-challenge and Cohort B mice (two doses) were sacrificed at 48 hours post APAP-challenge. A parallel set of untreated age-matched mice (no APAP and vehicle administered by oral gavage) were also sacrificed at both time points to compare baseline measurements (N=6/time point; 12 in total). […]

Which osmolality ([1]; final improved formulation 25 mg/mL (Study #18)) does the source give for `C[C@H](CCCC(C)(C)O)[C@H]1CC[C@H]2[C@@H]3CC=C4C[C@@H](OS(=O)(=O)[O-])CC[C@]4(C)[C@H]3CC[C@]12C.[Na+]` [Formulation 25HC3S, 5-cholesten-3, 25-diol, 3-sulfate] here?
The osmolality was 321 mmol/kg.

And the osmolality ([1]; suspension 25 mg/mL in Vehicle PEG 3350 without L-Methionine, 0.75% NaCl, average of 6 measurements)?
The osmolality was 321 mmol/kg.

What about the “reduction of BUN levels” value [2] of the same compound?
Its value is 5%.

And the “reduction of sCr levels” value [2]?
The value was about 20%.

And the syringeability ([3]; 25 mg/mL in Vehicle PEG 3350 (without L-Methionine), flat bed shaker 200 rpm up to 45 minutes (Study #13))?
Its syringeability is “good syringeability”.

And the syringeability ([3]; final suspension formulation: 25 mg/mL in 3% PEG 3350, 0.3% Tween 80, 0.75% NaCl, 10 mM phosphate buffer pH 7.4)?
Its syringeability is “good syringeability”.

What about the “serum chemistry parameters (ALT, AST, ALK, LDH, BUN, glucose)” value [4] of the same compound?
The value was “no effect”.
